Square brackets hold non-standard residues; d marks the D form. Peptide text beside a SMILES is read from it.
Experiments:
15N-labeled α-syn = 15N-labeled α-syn (Homo sapiens, UniProt P37840); experiment: NMR analysis (HSQC, PRE) of 15N-labeled α-syn with SVD-1a (FIG. 12); type: binding; conditions: 25 μM α-syn : SVD-1a 1:1, PBS pH 7.4, 10° C.
Experimental: Analogs of SVD-1a spin-labeled with nitroxyl radicals were produced by reacting (1-oxyl-2,2,5,5-tetramethyl-Δ3-pyrroline-3-methyl) methanethiosulfonate (MTSL) (Toronto Research Chemicals, USA) with SVD-1a_Cys, leading to covalent bonding of the nitroxyl radical spin label MTSL to the C-terminal D-cysteine residue. A fivefold molar excess of MTSL relative to the peptide, i.e. ˜4 mg MTSL (˜15 μmol) was dissolved in 90 μl N,N-dimethylformamide (DMF) and mixed with 810 μl 200 mM HEPES/NaOH buffer, pH 7.6. The solution was then added to ˜5 mg (˜3 μmol) of lyophilized SVD-1a_Cys. […]
The samples were produced at final concentrations of 25 μM full-length ^15N-labeled acetyl-α-syn in the absence (reference) and in the presence of an equimolar amount of SVD-1a (not isotope-labeled, therefore invisible to NMR) in PBS buffer, pH 7.4, with addition of 5% D2O as internal reference. 2D-^1H-^15N-HSQC spectra were recorded back-to-back with a Bruker AVANCE NEO spectrometer (Bruker, USA) at 1200 MHz proton Larmor frequency. […]
The NMR datasets were processed using the Bruker TopSpin software (Version 4.1.1) and visualized using CcpNmr Analysis (v2.4.2) (50). […] From the residue-specific changes in chemical shift in the ^1H and ^15N dimensions, an absolute change in chemical shift was calculated according to the following formula: […]

monomeric α-syn = monomeric α-syn (Homo sapiens, UniProt P37840); experiment: Size-exclusion chromatography of monomeric α-syn after incubation with SVD-1a (FIG. 13); type: biochemical; conditions: 10 μM α-syn monomer with 0-80 μM SVD-1a, 2 h, 37° C., 300 rpm
Experimental: 10 μM α-syn monomer were incubated with 0, 5, 10, 20, 40 and 80 μM SVD-1a in PBS, pH 7.4, for 2 h at 37° C. and 300 rpm. The SEC was carried out with a Bio SEC-3 column (150 Å, Agilent, USA) at 1 ml min^−1 and PBS, pH 7.4, as mobile phase. The samples were centrifuged for 5 minutes at 20 800×g before the supernatant was injected. The protein was detected at A214. α-syn monomer eluted after 6.91 min retention time. The peak area of the α-syn monomer was integrated for the 10 μM α-syn sample and set to 100%. The concentration of monomeric α-syn was not reduced in the presence of increasing concentrations of SVD-1a. SVD-1a itself was only eluted during the purification and regeneration procedure of the SEC, which is highly probably attributable to its high net positive charge.

PC12 cells = type: cell-based; conditions: rat, 24 h, 0.5 μM
Experimental: PC12 cells (Leibniz-Institut DSMZ, GE) were cultured at 37° C. on a collagen A-coated (Biochrom GmbH, GE) tissue culture flask in RPMI 1640 medium, supplemented with 5% fetal calf serum and 10% horse serum in an atmosphere humidified to 95% with 5% CO2. 10 000 cells per well in a volume of 100 μl were seeded into collagen A-coated 96-well plates (Thermo Fisher Scientific, USA and incubated for 24 hours at 37° C. and 300 rpm in a thermocycler.
Furthermore, 15 μM of the peptides alone, cell media, buffer without peptide and 0.1% Triton X-100 (cytotoxic compound) were used as controls. After further incubation in a 95% humidified atmosphere with 5% CO2 at 37° C. for 24 hours, the viability of the cells was measured using the Cell Proliferation Kit I (MTT) (Roche Applied Science, CH), following the manufacturer's protocol.
The MTT-formazan product was quantified by measuring the absorbance at 570 nm, corrected by subtracting the absorbance at 660 nm, in a FluoroStar Optima plate reader (BMG labtech, GE). All results were normalized to untreated cells grown only in medium. The significance test was carried out by one-way ANOVA with Bonferroni post-hoc analysis (OriginPro 2020, OriginLab, USA; n=4).
The significance test was carried out by one-way ANOVA with Bonferroni post-hoc analysis: […], ***p≤0.01. The means are stated±SD (n=4).

concentration of monomeric α-syn (SEC peak area) (monomeric α-syn): not reduced
Structure (SMILES): CC[C@@H](C)[C@@H](NC(=O)[C@@H](Cc1c[nH]cn1)NC(=O)[C@@H](CCC(=O)O)NC(=O)[C@@H](CCC(N)=O)NC(=O)[C@@H](Cc1c[nH]c2ccccc12)NC(=O)[C@@H](Cc1ccc(O)cc1)NC(=O)[C@H](NC(=O)[C@@H](CCC(=O)O)NC(=O)[C@@H](Cc1c[nH]cn1)NC(=O)[C@H](NC(=O)[C@H]1CCCN1C(=O)[C@@H](CC(C)C)NC(=O)[C@H](N)CCCNC(=N)N)[C@H](C)O)[C@H](C)O)C(=O)N[C@H](Cc1c[nH]c2ccccc12)C(=O)N[C@H](Cc1c[nH]cn1)C(=O)N[C@H](C)C(=O)N[C@H](CCCNC(=N)N)C(=O)N[C@H](CCCNC(=N)N)C(=O)N[C@H](CCCNC(=N)N)C(=O)N[C@H](CCCNC(=N)N)C(=O)N[C@H](CCCNC(=N)N)C(N)=O [SVD-1a, rlpthetywqehiwharrrrr] (H-[dR][dL][dP][dT][dH][dE][dT][dY][dW][dQ][dE][dH][dI][dW][dH][dA][dR][dR][dR][dR][dR]-NH2)
binding region on α-syn (PRE intensity ratios) (15N-labeled α-syn): somewhat more pronounced (transient) bonding interaction of SVD-1a with residues in the C-terminal region of α-syn
cells saved (cell viability) (PC12 cells): 82%

From patent US20250346629A1, “USE OF D-ENANTIOMERIC PEPTIDE LIGANDS OF MONOMERIC ALPHA-SYNUCLEIN FOR THE THERAPY OF VARIOUS SYNUCLEINOPATHIES” (PRIAVOID GMBH, priority 2021, published 2025)
